Experiments:
[1] = test system: AmpC production in Enterobacterales; assay: AmpC induction (nitrocefin hydrolysis after drug exposure); type: cell-based; conditions: tebipenem/imipenem except for C. koseri and S. marcescens
Experimental: (§1) AmpC induction was determined as follows. Baseline MIC values were determined by broth microdilution method, as described above, for 9 Gram-negative isolates with basal expression of ampC. These isolates were cultured overnight on blood agar plates. A standardized inoculum made from fresh overnight plate cultures was added to flasks containing 50 mL of Luria-Bertani (LB) broth and incubated by shaking at 37° C. to OD600 of 0.3. […] These cultures were incubated under shaking conditions. A 40 mL aliquot of bacterial cultures was sampled at time 0 and 2 hours after drug exposures. Each sample aliquot was harvested by centrifugation and the supernatant was discarded.
(§2) Protein crude extract preparations were made in 200 μL of BugBusterR (Novagen, Darmstadt, Germany) per manufacturer instructions and cell debris was removed by centrifugation. Protein concentrations were determined in each crude extract by standard methodologies.
(§3) AmpC induction was measured by the intensity of β-lactamase hydrolytic activity against 0.1 mM nitrocefin in 0.1 M phosphate buffer at pH 7.0 using spectrophotometry at 482 nm (Δ absorbance/minute/mg of protein). The drug exposure conditions that caused a >4-fold increase in hydrolysis activity compared to the baseline were subjected to postinduction experiments. Briefly, cells were grown under the same conditions as before and tested for susceptibility by broth microdilution.

[2] = test system: AmpC production in P. aeruginosa; assay: as above; type: cell-based
Experimental: as §1, §2, §3

For C[C@@H](O)[C@H]1C(=O)N2C(C(=O)O)=C(S[C@@H]3CN[C@H](C(=O)Nc4cccc(C(=O)O)c4)C3)[C@H](C)[C@H]12 [Ertapenem, ertapenem], which “effect of exposure on production of AmpC” value [1] is on record?
Its value is “did not seem to affect production of AmpC”.

What about the “effect of exposure on production of AmpC” value [2] of the same molecule?
Its value is “not observed”.
